Reference: patent US12570642B2, “GLP-IR modulating compounds” (Gilead Sciences, Inc., priority 2021, dated 2026)

Biological target: GLP-1R (Homo sapiens, UniProt P43220)
Experiment: GLP-1R Activation - cAMP Assay
Type: cell-based
Conditions: cAMP increase in CHO cells stably expressing GLP-1R; each compound run on one of the two cAMP assays (Assay 1 or Assay 2, not specified)
In short: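 cAMP rise read by HTRF after 30 min agonist exposure (10-point titration, 37 °C) in HBSS/20 mM Hepes/0.1% BSA, following 1 h pre-incubation. Cells: stable GLP-1R CHO line, 1,000/well, seeded overnight. Sigmoidal fit of response vs log concentration gives EC50.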

Sequence of GLP-1R (P43220 24-463): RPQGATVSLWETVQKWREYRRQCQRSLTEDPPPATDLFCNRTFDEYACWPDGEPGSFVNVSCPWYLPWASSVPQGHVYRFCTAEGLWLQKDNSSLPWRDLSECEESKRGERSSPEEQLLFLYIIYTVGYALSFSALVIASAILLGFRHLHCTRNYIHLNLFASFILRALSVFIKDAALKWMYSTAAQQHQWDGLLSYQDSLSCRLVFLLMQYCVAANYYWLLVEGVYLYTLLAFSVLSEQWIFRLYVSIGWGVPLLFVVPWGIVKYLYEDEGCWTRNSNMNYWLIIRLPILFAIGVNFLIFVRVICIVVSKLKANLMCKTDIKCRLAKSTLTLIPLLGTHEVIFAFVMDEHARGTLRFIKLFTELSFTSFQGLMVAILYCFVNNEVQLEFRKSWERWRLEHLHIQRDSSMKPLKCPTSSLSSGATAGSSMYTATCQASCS

| SMILES | EC50 |
| --- | --- |
| N#Cc1ccc(COc2cccc(-c3cc(F)c(Cc4nc5ccc(C(=O)O)cc5n4N4CCCC4)cc3F)n2)c(F)c1 [Example 67, 2-(4-(6-((4-cyano-2-fluorobenzyl)oxy)pyridin-2-yl)-2,5-difluorobenzyl)-1-(pyrrolidin-1-yl)-1H-benzo[d]imidazole-6-carboxylic Acid] | 7.25 nM |
| CC1(C)COC[C@H]1n1c(Cc2cc(F)c(-c3nccc(OCc4ccc(Cl)cc4F)n3)cc2F)nc2ccc(C(=O)O)cc21 [Example 405, (S)-2-(4-(4-((4-chloro-2-fluorobenzyl)oxy)pyrimidin-2-yl)-2,5-difluorobenzyl)-1-(4,4-dimethyltetrahydrofuran-3-yl)-1H-benzo[d]imidazole-6-carboxylic acid] | 0.337 nM |
| C[C@H]1COC[C@H]1n1c(Cc2cc(F)c(-c3ccc(F)c(OCc4cc(F)c(C#N)cc4F)n3)cc2F)nc2ccc(C(=O)O)cc21 [Example 481, 2-(4-(6-((4-cyano-2,5-difluorobenzyl)oxy)-5-fluoropyridin-2-yl)-2,5-difluorobenzyl)-1-((3S,4R)-4-methyltetrahydrofuran-3-yl)-1H-benzo[d]imidazole-6-carboxylic acid] | 0.883 nM |
| COCCn1c(Cc2c(F)cc(-c3cccc(OCc4ccc(-n5ccnn5)cc4)n3)c(F)c2F)nc2c(F)cc(C(=O)O)cc21 [Example 222, 2-(4-(6-((4-(1H-1,2,3-triazol-1-yl)benzyl)oxy)pyridin-2-yl)-2,3,6-trifluorobenzyl)-4-fluoro-1-(2-methoxyethyl)-1H-benzo[d]imidazole-6-carboxylic acid] | 0.136 nM |
| COCCn1c(Cc2c(F)cc(-c3cccc(OCc4ccc(-n5ccnn5)cc4Cl)n3)c(F)c2F)nc2ccc(C(=O)O)cc21 [Example 403, 2-(4-(6-((2-chloro-4-(1H-1,2,3-triazol-1-yl)benzyl)oxy)pyridin-2-yl)-2,3,6-trifluorobenzyl)-1-(2-methoxyethyl)-1H-benzo[d]imidazole-6-carboxylic acid] | 0.081 nM |
| Cc1cc(Cc2nc3ccc(C(=O)O)cc3n2[C@@H]2COCC2(C)C)c(F)cc1-c1ccc(F)c(OCc2ccc(C#N)cc2)n1 [Example 180, (S)-2-(4-(6-((4-cyanobenzyl)oxy)-5-fluoropyridin-2-yl)-2-fluoro-5-methylbenzyl)-1-(4,4-dimethyltetrahydrofuran-3-yl)-1H-benzo[d]imidazole-6-carboxylic Acid] | 0.089 nM |
| CC1(C)COC[C@H]1n1c(Cc2c(F)cc(-c3ccnc(OCc4ccc(Cl)cc4)n3)c(F)c2F)nc2c(F)cc(C(=O)O)cc21 [Example 229, (S)-2-(4-(2-((4-chlorobenzyl)oxy)pyrimidin-4-yl)-2,3,6-trifluorobenzyl)-1-(4,4-dimethyltetrahydrofuran-3-yl)-4-fluoro-1H-benzo[d]imidazole-6-carboxylic acid] | 0.135 nM |
| CC1(C)COC[C@H]1n1c(Cc2ccc(-c3cccc(OCc4cnc(-n5ccnn5)cc4Cl)n3)cc2F)nc2ccc(C(=O)O)cc21 [Example 158, (S)-2-(4-(6-((4-chloro-6-(1H-1,2,3-triazol-1-yl)pyridin-3-yl)methoxy)pyridin-2-yl)-2-fluorobenzyl)-1-(4,4-dimethyltetrahydrofuran-3-yl)-1H-benzo[d]imidazole-6-carboxylic Acid] | 0.032 nM |
| COCCn1c(Cc2cc(F)c(-c3cc(O)cc(OCc4ccc(C#N)cc4F)n3)cc2F)nc2ccc(C(=O)O)cc21 [Example 44, 2-(4-(6-((4-cyano-2-fluorobenzyl)oxy)-4-hydroxypyridin-2-yl)-2,5-difluorobenzyl)-1-(2-methoxyethyl)-1H-benzo[d]imidazole-6-carboxylic Acid] | 0.81 nM |
| CC1(C)COC[C@H]1n1c(Cc2cc(F)c(-c3ccc(F)c(OCc4cnc(-n5ccnn5)cc4Cl)n3)cc2F)nc2ccc(C(=O)O)cc21 [Example 160, (S)-2-(4-(6-((4-chloro-6-(1H-1,2,3-triazol-1-yl)pyridin-3-yl)methoxy)-5-fluoropyridin-2-yl)-2,5-difluorobenzyl)-1-(4,4-dimethyltetrahydrofuran-3-yl)-1H-benzo[d]imidazole-6-carboxylic Acid] | 0.035 nM |
| N#Cc1ccc(COc2cccc(-c3cc(F)c(Cc4nc5ccc(C(=O)O)cc5n4C4COCC45CC5)cc3F)n2)c(F)c1 (stereo not shown) [Example 268, 2-(4-(6-((4-cyano-2-fluorobenzyl)oxy)pyridin-2-yl)-2,5-difluorobenzyl)-1-(5-oxaspiro[2.4]heptan-7-yl)-1H-benzo[d]imidazole-6-carboxylic acid] | 0.175 nM |
| N#Cc1ccc(COc2cccc(-c3cc(F)c(Cc4nc5ccc(C(=O)O)cc5n4C4COC[C@@H]4CO)cc3F)n2)c(F)c1 (mixture of isomers) [Example 216, 2-(4-(6-((4-cyano-2-fluorobenzyl)oxy)pyridin-2-yl)-2,5-difluorobenzyl)-1-((3S,4S)-4-(hydroxymethyl)tetrahydrofuran-3-yl)-1H-benzo[d]imidazole-6-carboxylic acid] | 0.056 nM |
| CC1(C)COC[C@H]1n1c(Cc2cc(F)c(-c3cccc(OCc4cc(F)c(C#N)cc4F)n3)cc2F)nc2ccc(C(=O)O)cc21 [Example 487, (S)-2-(4-(6-((4-cyano-2,5-difluorobenzyl)oxy)pyridin-2-yl)-2,5-difluorobenzyl)-1-(4,4-dimethyltetrahydrofuran-3-yl)-1H-benzo[d]imidazole-6-carboxylic acid] | 0.159 nM |
| Cn1nnc2cc(COc3cccc(-c4cc(F)c(Cc5nc6ccc(C(=O)O)cc6n5[C@@H]5COCC5(C)C)cc4F)n3)ccc21 [Example 512, (S)-2-(2,5-difluoro-4-(6-((1-methyl-1H-benzo[d][1,2,3]triazol-5-yl)methoxy)pyridin-2-yl)benzyl)-1-(4,4-dimethyltetrahydrofuran-3-yl)-1H-benzo[d]imidazole-6-carboxylic acid] | 0.515 nM |
| N#Cc1ccc(COc2cccc(-c3cc(F)c(Cc4nc5ccc(C(=O)O)cc5n4C45COCC4C5)cc3F)n2)c(F)c1 (stereo not shown) [Example 69, 1-(3-oxabicyclo[3.1.0]hexan-1-yl)-2-(4-(6-((4-cyano-2-fluorobenzyl)oxy)pyridin-2-yl)-2,5-difluorobenzyl)-1H-benzo[d]imidazole-6-carboxylic Acid] | 13.8 nM |
| CC1(C)COC[C@H]1n1c(Cc2cc(F)c(-c3cccc(OCc4ncc(-n5ccnn5)cc4Cl)n3)cc2F)nc2ccc(C(=O)O)cc21 [Example 162, (S)-2-(4-(6-((3-chloro-5-(1H-1,2,3-triazol-1-yl)pyridin-2-yl)methoxy)pyridin-2-yl)-2,5-difluorobenzyl)-1-(4,4-dimethyltetrahydrofuran-3-yl)-1H-benzo[d]imidazole-6-carboxylic Acid] | 0.187 nM |
| N#Cc1ccc(COc2cccc(-c3cc(F)c(Cc4nc5ccc(C(=O)O)cc5n4[C@@H]4CO[C@H]5COC[C@H]54)cc3F)n2)c(F)c1 [Example 79, 2-(4-(6-((4-cyano-2-fluorobenzyl)oxy)pyridin-2-yl)-2,5-difluorobenzyl)-1-((3S,3aR,6aR)-hexahydrofuro[3,4-b]furan-3-yl)-1H-benzo[d]imidazole-6-carboxylic Acid] | 5.62 nM |
| COCCn1cc(-c2ccc(COc3cccc(-c4cc(F)c(Cc5nc6ccc(C(=O)O)cc6n5CCOC)cc4F)n3)c(F)c2)cn1 [Example 106, 2-(2,5-difluoro-4-(6-((2-fluoro-4-(1-(2-methoxyethyl)-1H-pyrazol-4-yl)benzyl)oxy)pyridin-2-yl)benzyl)-1-(2-methoxyethyl)-1H-benzo[d]imidazole-6-carboxylic Acid] | 2.22 nM |
| COCCn1c(Cc2cc(F)c(-c3cccc(OCc4ncc(Br)cc4F)n3)cc2F)nc2ccc(C(=O)O)cc21 [Example 23] | 4.57 nM |
| CC(C)COCCn1c(Cc2cc(F)c(-c3cccc(OCc4cnc(-n5ccnn5)cc4Cl)n3)cc2F)nc2ccc(C(=O)O)cc21 [Example 569, 2-(4-(6-((4-chloro-6-(1H-1,2,3-triazol-1-yl)pyridin-3-yl)methoxy)pyridin-2-yl)-2,5-difluorobenzyl)-1-(2-isobutoxyethyl)-1H-benzo[d]imidazole-6-carboxylic acid] | 0.987 nM |
| COCCn1c(Cc2cc(F)c(-c3cccc(OCc4ccc(C#N)cc4F)n3)cc2Cl)nc2c(F)cc(C(=O)O)cc21 [Example 351, 2-(2-chloro-4-(6-((4-cyano-2-fluorobenzyl)oxy)pyridin-2-yl)-5-fluorobenzyl)-4-fluoro-1-(2-methoxyethyl)-1H-benzo[d]imidazole-6-carboxylic acid] | 0.074 nM |
| COCCn1c(Cc2cc(F)c(-c3ccc(F)c(OCc4cnc(-n5ccnn5)cc4Cl)c3)cc2F)nc2ccc(C(=O)O)cc21 [Example 390, 2-((3′-((4-chloro-6-(1H-1,2,3-triazol-1-yl)pyridin-3-yl)methoxy)-2,4′,5-trifluoro-[1,1′-biphenyl]-4-yl)methyl)-1-(2-methoxyethyl)-1H-benzo[d]imidazole-6-carboxylic acid] | 3.12 nM |
| N#Cc1ccc(COc2cccc(-c3cc(F)c(Cc4nc5ccc(C(=O)O)cc5n4C4COC5(CC5)C4)cc3F)n2)c(F)c1 (stereo not shown) [Example 203, 2-(4-(6-((4-cyano-2-fluorobenzyl)oxy)pyridin-2-yl)-2,5-difluorobenzyl)-1-(4-oxaspiro[2.4]heptan-6-yl)-1H-benzo[d]imidazole-6-carboxylic acid] | 38.3 nM |
| CC1(C)COC[C@H]1n1c(Cc2c(F)cc(-c3cccc(OCc4ccc(Cl)cc4)n3)c(F)c2F)nc2c(F)cc(C(=O)O)cc21 [Example 243, (S)-2-(4-(6-((4-chlorobenzyl)oxy)pyridin-2-yl)-2,3,6-trifluorobenzyl)-1-(4,4-dimethyltetrahydrofuran-3-yl)-4-fluoro-1H-benzo[d]imidazole-6-carboxylic acid] | 0.022 nM |
| CC1(C)COC[C@H]1n1c(Cc2cc(F)c(-c3cccc(OCc4ccc(Cl)cc4F)n3)cc2F)nc2c(Cl)cc(C(=O)O)cc21 [Example 126, (S)-4-chloro-2-(4-(6-((4-chloro-2-fluorobenzyl)oxy)pyridin-2-yl)-2,5-difluorobenzyl)-1-(4,4-dimethyltetrahydrofuran-3-yl)-1H-benzo[d]imidazole-6-carboxylic Acid] | 0.332 nM |
